Molecular target: T1, Vitamin D3 receptor (Homo sapiens) (UniProt P11473)
T1 sequence (whole entry): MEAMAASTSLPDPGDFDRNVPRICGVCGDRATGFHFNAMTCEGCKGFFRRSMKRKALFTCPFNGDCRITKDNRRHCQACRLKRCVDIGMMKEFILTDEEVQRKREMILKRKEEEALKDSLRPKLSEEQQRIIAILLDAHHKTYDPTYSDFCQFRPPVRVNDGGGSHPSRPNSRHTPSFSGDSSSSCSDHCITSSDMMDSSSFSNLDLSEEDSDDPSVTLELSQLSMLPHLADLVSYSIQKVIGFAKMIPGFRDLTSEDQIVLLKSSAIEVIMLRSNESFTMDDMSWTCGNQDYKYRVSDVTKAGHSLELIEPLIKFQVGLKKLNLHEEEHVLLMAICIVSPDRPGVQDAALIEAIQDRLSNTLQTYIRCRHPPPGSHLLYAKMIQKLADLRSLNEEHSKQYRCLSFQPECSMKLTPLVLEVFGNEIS
Assay: Antagonist activity against 1-alpha,25-dihydroxy vitamin D3-induced HL60 cell differentiation by NBT reduction method relative to TEI-9647
Format: functional, cell-based
Parameters: scale not given: the % may be the effect or the level left
Details: HL-60

Activity [%] | SMILES
18 | C=C1/C(=C\C=C2/CCC[C@]3(C)[C@@H]([C@H](C)C[C@H]4OC(=O)C(=C)[C@@H]4CC)CC[C@@H]23)C[C@@H](O)[C@H](C)[C@@H]1O
1160 | C=C1C[C@H](C[C@@H](C)[C@H]2CC[C@H]3/C(=C/C=C4/C[C@@H](O)[C@H](OCCCO)[C@H](O)C4=C)CCC[C@]23C)OC1=O
8 | C=C1/C(=C\C=C2/CCC[C@]3(C)[C@@H]([C@H](C)C[C@H]4OC(=O)C(=C)[C@@H]4C)CC[C@@H]23)C[C@@H](O)[C@H](CCCO)[C@@H]1O
179 | C=C1/C(=C\C=C2/CCC[C@]3(C)[C@@H]([C@H](C)C[C@@H]4OC(=O)C(=C)[C@@H]4CCCC)CC[C@@H]23)C[C@@H](O)C[C@@H]1O
66 | C=C1C[C@@H](C[C@@H](C)[C@H]2CC[C@H]3/C(=C/C=C4/C[C@@H](O)[C@H](OCCCO)[C@H](O)C4=C)CCC[C@]23C)OC1=O
866 | C=C1/C(=C\C=C2/CCC[C@]3(C)[C@@H]([C@H](C)C[C@@H]4OC(=O)C(=C)[C@H]4CC)CC[C@@H]23)C[C@@H](O)[C@H](CCCO)[C@@H]1O
38 | C=C1C[C@@H](C[C@@H](C)[C@H]2CC[C@H]3/C(=C/C=C4/C[C@@H](O)[C@H](C)[C@H](O)C4=C)CCC[C@]23C)OC1=O
442 | C=C1/C(=C\C=C2/CCC[C@]3(C)[C@@H]([C@H](C)C[C@@H]4OC(=O)C(=C)[C@@H]4CC)CC[C@@H]23)C[C@@H](O)[C@H](CCCO)[C@@H]1O
2030 | C=C1/C(=C\C=C2/CCC[C@]3(C)[C@@H]([C@H](C)C[C@@H]4OC(=O)C(=C)[C@H]4CCC)CC[C@@H]23)C[C@@H](O)[C@H](C)[C@@H]1O
388 | C=C1/C(=C\C=C2/CCC[C@]3(C)[C@@H]([C@H](C)C[C@@H]4OC(=O)C(=C)[C@H]4CC(C)C)CC[C@@H]23)C[C@@H](O)[C@H](CCCO)[C@@H]1O
37 | C=C1/C(=C\C=C2/CCC[C@]3(C)[C@@H]([C@H](C)C[C@H]4OC(=O)C(=C)[C@H]4CCCC)CC[C@@H]23)C[C@@H](O)[C@H](OCCCO)[C@@H]1O
85 | C=C1/C(=C\C=C2/CCC[C@]3(C)[C@@H]([C@H](C)C[C@H]4OC(=O)C(=C)[C@@H]4C)CC[C@@H]23)C[C@@H](O)[C@H](C)[C@@H]1O
989 | C=C1/C(=C\C=C2/CCC[C@]3(C)[C@@H]([C@H](C)C[C@@H]4OC(=O)C(=C)[C@@H]4CC(C)C)CC[C@@H]23)C[C@@H](O)[C@H](CCCO)[C@@H]1O
7 | C=C1/C(=C\C=C2/CCC[C@]3(C)[C@@H]([C@H](C)C[C@H]4OC(=O)C(=C)[C@@H]4C)CC[C@@H]23)C[C@@H](O)C[C@@H]1O
1290 | C=C1/C(=C\C=C2/CCC[C@]3(C)[C@@H]([C@H](C)C[C@@H]4OC(=O)C(=C)[C@@H]4CC)CC[C@@H]23)C[C@@H](O)[C@H](C)[C@@H]1O
25 | C=C1/C(=C\C=C2/CCC[C@]3(C)[C@@H]([C@H](C)C[C@H]4OC(=O)C(=C)[C@@H]4CC)CC[C@@H]23)C[C@@H](O)[C@H](OCCCO)[C@@H]1O
18 | C=C1/C(=C\C=C2/CCC[C@]3(C)[C@@H]([C@H](C)C[C@H]4OC(=O)C(=C)[C@H]4CC)CC[C@@H]23)C[C@@H](O)[C@H](CCCO)[C@@H]1O
1660 | C=C1/C(=C\C=C2/CCC[C@]3(C)[C@@H]([C@H](C)C[C@@H]4OC(=O)C(=C)[C@@H]4CCCC)CC[C@@H]23)C[C@@H](O)[C@H](OCCCO)[C@@H]1O
2990 | C=C1C[C@H](C[C@@H](C)[C@H]2CC[C@H]3/C(=C/C=C4/C[C@@H](O)[C@H](CCCO)[C@H](O)C4=C)CCC[C@]23C)OC1=O
250 | C=C1C(=O)O[C@@H](C[C@@H](C)[C@H]2CC[C@H]3/C(=C/C=C4/C[C@@H](O)C[C@H](O)C4=C)CCC[C@]23C)[C@@H]1C
12 | C=C1/C(=C\C=C2/CCC[C@]3(C)[C@@H]([C@H](C)C[C@H]4OC(=O)C(=C)[C@@H]4CCC)CC[C@@H]23)C[C@@H](O)[C@H](C)[C@@H]1O
42 | C=C1/C(=C\C=C2/CCC[C@]3(C)[C@@H]([C@H](C)C[C@H]4OC(=O)C(=C)[C@@H]4CC(C)C)CC[C@@H]23)C[C@@H](O)[C@H](OCCCO)[C@@H]1O
573 | C=C1/C(=C\C=C2/CCC[C@]3(C)[C@@H]([C@H](C)C[C@H]4OC(=O)C(=C)[C@@H]4CCC)CC[C@@H]23)C[C@@H](O)[C@H](CCCO)[C@@H]1O
6 | C=C1/C(=C\C=C2/CCC[C@]3(C)[C@@H]([C@H](C)C[C@H]4OC(=O)C(=C)[C@@H]4CC)CC[C@@H]23)C[C@@H](O)C[C@@H]1O
3750 | C=C1/C(=C\C=C2/CCC[C@]3(C)[C@@H]([C@H](C)C[C@@H]4OC(=O)C(=C)[C@@H]4C)CC[C@@H]23)C[C@@H](O)[C@H](C)[C@@H]1O
18 | C=C1C(=O)O[C@H](C[C@@H](C)[C@H]2CC[C@H]3/C(=C/C=C4/C[C@@H](O)C[C@H](O)C4=C)CCC[C@]23C)[C@@H]1C

From ChEMBL document CHEMBL1137357, “Further synthetic and biological studies on vitamin D hormone antagonists based on C24-alkylation and C2alpha-functionalization of 25-dehydro-1alpha-hydroxyvitamin D(3)-26,23-lactones” (J Med Chem, 2006)
